Results as given in US12564609B2, “Hematopoietic stem cell engraftment with a combination of agents” (The Board of Trustees of the Leland Stanford Junior …, priority 2020, dated 2026).

What was measured:
LT-HSC, ST-HSC, MPP = test: Ki67 expression and HSPC depletion after AZA (dose titration); type: in vivo, C57BL/6 mice
Procedure: A. Schematic of treatment protocol. […] 24 h after last AZA injection BM was analyzed for HSC-depletion and Ki67 intracellular protein expression. B. […] C. Mean fluorescence intensity (MFI) of Ki67 intracellular protein expression in LT-HSC, ST-HSC, MPP2, MPP3/4 and myeloid progenitors (MP). Data were pooled from 2 independent experiments and represent mean±SD (n=7). Statistics were calculated Mann-Whitney test (*P<0.05; **P<0.01; ***P<0.001). D. Schematic of in vitro culture protocol. Mouse Lin^−Sca1+c-Kit^+CD48^− or human Lin^−CD34^+CD38^− were FACS-sorted and plated in 96-well flat bottom plate, coated with fibronectin and containing 100 μl of HSC media/well, supplemented with 10 ng/ml SCF and 100 ng/ml TPO. Different concentrations of AZA (0.1, 0.5 and 1 μg/ml) were added on two consecutive days (at baseline and 24 h after cell culturing) and cell counting, and cell imaging was performed every 6 h for total of 48 h on ImagExpress Pico automated cell counting system. After 48 h % live/dead cells was assessed by using EarlyTox Live/Dead Assay Kit. E. Proliferation curves of FACS-sorted mouse Lin^−Sca1^+c-Kit^+CD48^− in the presence of indicated concentrations of AZA (left) and cell viability as assessed by % of Calcein AM positive cells after 48 h of cell culture (right). Data represent mean±SD from 3 independent experiments. Statistics were calculated with Mann-Whitney test (*P<0.05; **P<0.01; ***P<0.001). F. Proliferation curves of FACS-sorted human Lin^−CD34^+CD38^− cells in the presence of indicated concentrations of AZA (left) and cell viability as assessed by % of Calcein AM positive cells after 48 h of cell culture (right). Data represent mean±SD from 2 independent experiments. Statistics were calculated with Mann-Whitney test (**P<0.01; ***P<0.001).
Analysis was performed 24 h after last AZA administration. Gated from lineage negative (Lin^−) live cells. Lin^−Sca1^+c-Kit^++ cells (LSK), long-term hematopoietic stem cells (LT-HSC). […] Data were pooled from 2 independent experiments and represent mean±SD (n=7). Statistics were calculated Mann-Whitney test (**P<0.01; ***P<0.001).
In vivo administration of therapeutic agents and cytokines. Anti-mouse CD117 mAbs, clone ACK2 (BioXcell) and 2B8 (BioXcell), were injected retroorbital as a single dose of 500 μg following intraperitoneal administration of Diphenhydramine (Benadryl). Anti CD4 (clone GK1.5, BioXcell) and anti-CD8 (clone YTS169.4, BioXcell) were administered intraperitoneally at a dose of 100 μg in 100 μl phosphate-buffered saline (PBS). 5-Azacytidine (AZA) ([…] Technologies), was reconstituted in PBS to a concentration of 5 mg/ml and kept at −20° for up to 1 month. Before each injection, AZA was thawed for 10-15 min at room temperature (RT), resuspended in PBS and administered intraperitoneally in 100 μl. […]

[1] = AZA in mouse model of HCL with transplantation of donor hematopoietic cells; type: in vivo, mice; conditions: AZA 5 mg/kg for 5 days followed by transplantation
Procedure: Wildtype and HCL mice were treated with AZA 5 mg/kg for 5 days following by transplantation of donor hematopoietic cells. % myeloid donor chimerism was assessed by flow cytometry at 4- and 16-weeks post transplantation.

SMILES: Nc1ncn([C@@H]2O[C@H](CO)[C@@H](O)[C@H]2O)c(=O)n1 [AZA, 5-Azacytidine]
- level of HSPC (LSK) and LT-HSC after depletion (LT-HSC, ST-HSC, MPP; AZA 1.25 mg/kg/d for 3 days, 24 h after last dose): −25 % of baseline
- normalization of Ki67 in HSC and MPP (LT-HSC, ST-HSC, MPP; AZA 5 mg/kg/d for 5 days): ≤ 10 days
- Ki67 in HSC and MPP (LT-HSC, ST-HSC, MPP; AZA 5 mg/kg/d for 5 days, day 6): significant increase of Ki67
- Ki67 protein expression in HSC, MPP and MP compartments (LT-HSC, ST-HSC, MPP; AZA 1.25, 2.5 and 5 mg/kg/d for 3 days (all three dose regimens)): significant increase in Ki67 protein expression
- therapeutic activity [1]: shows therapeutic activity
